Data reported in patent US20210122730A1, “GLUCOCORTICOID RECEPTOR MODULATORS” (ORIC Pharmaceuticals, Inc., priority 2017, published 2021).

How the values were obtained:
GR = biological target: T1, GR (Homo sapiens, UniProt P04150); experiment: In Vitro GR Luciferase Reporter Assay (antagonist mode, CHO-K1-GR-MMTV-Luc reporter cells); type: cell-based
T1 construct: expressed in transfected cells; host or cells: CHO-K1
T1 sequence (P04150 1-777): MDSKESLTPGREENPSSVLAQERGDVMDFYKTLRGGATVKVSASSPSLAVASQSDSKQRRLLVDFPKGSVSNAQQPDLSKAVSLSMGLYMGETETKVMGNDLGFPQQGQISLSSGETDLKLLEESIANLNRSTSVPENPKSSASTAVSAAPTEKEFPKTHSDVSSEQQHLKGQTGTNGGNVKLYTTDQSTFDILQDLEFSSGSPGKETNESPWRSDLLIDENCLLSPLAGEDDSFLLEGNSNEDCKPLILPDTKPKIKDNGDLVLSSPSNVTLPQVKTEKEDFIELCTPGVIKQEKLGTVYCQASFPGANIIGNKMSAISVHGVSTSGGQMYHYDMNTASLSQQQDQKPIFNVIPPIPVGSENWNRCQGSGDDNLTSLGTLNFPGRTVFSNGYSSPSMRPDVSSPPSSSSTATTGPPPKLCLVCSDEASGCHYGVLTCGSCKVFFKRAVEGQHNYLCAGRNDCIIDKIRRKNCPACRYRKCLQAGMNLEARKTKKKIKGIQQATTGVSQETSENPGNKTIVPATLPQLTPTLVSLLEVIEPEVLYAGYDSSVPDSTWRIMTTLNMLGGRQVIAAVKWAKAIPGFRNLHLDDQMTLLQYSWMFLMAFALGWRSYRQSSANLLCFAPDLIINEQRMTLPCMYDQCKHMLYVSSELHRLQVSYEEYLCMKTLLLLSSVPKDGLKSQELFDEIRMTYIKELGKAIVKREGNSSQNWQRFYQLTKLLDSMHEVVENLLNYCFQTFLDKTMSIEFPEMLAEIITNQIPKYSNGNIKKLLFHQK
How it was run: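 Antagonist mode: compounds (8 serial 1:5 dilutions) added to GR-MMTV-luciferase CHO-K1 reporter cells co-exposed to 10 nM dexamethasone final, in phenol red-free DMEM plus 10% CSS. After roughly 18-24 h at 37° C, OneGlo luminescence read and IC50 calculated.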

CYP2C8 = biological target: T2, CYP2C8 (Homo sapiens, UniProt P10632); experiment: CYP Inhibition Assay (CYP2C8, human liver microsomes, paclitaxel substrate); type: in vitro ADME; conditions: pH 7.4; pooled human liver microsomes 0.1 mg/mL, probe substrate paclitaxel
T2 construct: Pooled human microsomes were obtained from Sekisui XenoTech, KS; tissue Sekisui XenoTech, KS; host or cells: pooled human liver microsomes
T2 sequence (P10632 1-490): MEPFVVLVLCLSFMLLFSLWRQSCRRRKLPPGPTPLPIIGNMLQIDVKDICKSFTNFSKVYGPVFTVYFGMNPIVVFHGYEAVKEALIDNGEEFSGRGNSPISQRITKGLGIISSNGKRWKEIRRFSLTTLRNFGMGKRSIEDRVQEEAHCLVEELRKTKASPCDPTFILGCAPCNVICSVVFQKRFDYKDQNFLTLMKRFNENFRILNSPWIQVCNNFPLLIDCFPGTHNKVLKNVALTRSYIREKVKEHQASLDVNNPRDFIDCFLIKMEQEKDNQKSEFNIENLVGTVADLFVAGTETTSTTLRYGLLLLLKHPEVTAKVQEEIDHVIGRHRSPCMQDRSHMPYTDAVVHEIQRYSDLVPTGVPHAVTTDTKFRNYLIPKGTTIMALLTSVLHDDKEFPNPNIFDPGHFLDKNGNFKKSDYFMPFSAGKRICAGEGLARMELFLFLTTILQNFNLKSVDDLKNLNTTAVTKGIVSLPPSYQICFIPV
How it was run: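 CYP2C8 activity read as 6α-hydroxypaclitaxel formation by LC-MS/MS, with % inhibition versus vehicle control. Reactions ran 5 min at 37° C, pH 7.4 phosphate buffer, 0.1 mg/mL pooled human liver microsomes, 1 mM NADPH, duplicate wells.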

[1] = antagonist mode, 10 nM Dexamethasone
[2] = antagonist assay with 10 nM Dexamethasone, 18-24 hours

Row | SMILES | IC50 (GR; [1]) [nM] | inhibition at 5 min (CYP2C8) [%] | IC50 (GR; [2]) [nM]
1 | CN([C@H]1CCC2=Cc3c(cnn3-c3ccc(F)cc3)C[C@]2(C(=O)c2ccccn2)C1)S(=O)(=O)c1ccc(Cl)cc1 [Example 4, 4-Chloro-N-((4aS,6S)-1-(4-fluorophenyl)-4a-picolinoyl-4,4a,5,6,7,8-hexahydro-1H-benzo[f]indazol-6-yl)-N-methylbenzenesulfonamide] |  | 50 to 75 | ≤ 100
2 | CN([C@H]1CCC2=Cc3c(cnn3-c3ccc(F)cc3)C[C@]2(C(=O)c2cc(C(F)(F)F)ccn2)C1)S(=O)(=O)c1cnn(C)c1 [Example 81, N-((4aS,6S)-1-(4-fluorophenyl)-4a-(4-(trifluoromethyl)picolinoyl)-4,4a,5,6,7,8-hexahydro-1H-benzo[f]indazol-6-yl)-N,1-dimethyl-1H-pyrazole-4-sulfonamide] |  | 25 to 50 | ≤ 100
3 | Cn1ccc(S(=O)(=O)N(C2CC2)[C@H]2CCC3=Cc4c(cnn4-c4ccc(F)cc4)C[C@]3(C(=O)c3ncc(C4CC4)s3)C2)n1 [Example 160, N-cyclopropyl-N-((4aS,6S)-4a-(5-cyclopropylthiazole-2-carbonyl)-1-(4-fluorophenyl)-4,4a,5,6,7,8-hexahydro-1H-benzo[f]indazol-6-yl)-1-methyl-1H-pyrazole-3-sulfonamide] | ≤ 100 | 50 to 75 | 
4 | Cn1cc(S(=O)(=O)N(CC2CC2)[C@H]2CCC3=Cc4c(cnn4-c4ccc(F)cc4)C[C@]3(C(=O)c3cc(C(F)(F)F)ccn3)C2)nn1 [Example 229, N-(cyclopropylmethyl)-N-((4aS,6S)-1-(4-fluorophenyl)-4a-(4-(trifluoromethyl)picolinoyl)-4,4a,5,6,7,8-hexahydro-1H-benzo[f]indazol-6-yl)-1-methyl-1H-1,2,3-triazole-4-sulfonamide] | ≤ 100 | 50 to 75 | 
5 | Cn1ccc(S(=O)(=O)N(CC2(O)CC2)[C@H]2CCC3=Cc4c(cnn4-c4ccc(F)cc4)C[C@]3(C(=O)c3cc(Cl)ccn3)C2)n1 [Example 257, N-((4aS,6S)-4a-(4-chloropicolinoyl)-1-(4-fluorophenyl)-4,4a,5,6,7,8-hexahydro-1H-benzo[f]indazol-6-yl)-N-((1-hydroxycyclopropyl)methyl)-1-methyl-1H-pyrazole-3-sulfonamide] | ≤ 100 | 50 to 75 | 
6 | CCN([C@H]1CCC2=Cc3c(cnn3-c3ccc(F)cc3)C[C@]2(C(=O)c2cc(F)ccn2)C1)S(=O)(=O)c1ncn(C)n1 [Example 358, N-ethyl-N-((4aS,6S)-1-(4-fluorophenyl)-4a-(4-fluoropicolinoyl)-4,4a,5,6,7,8-hexahydro-1H-benzo[f]indazol-6-yl)-1-methyl-1H-1,2,4-triazole-3-sulfonamide] | ≤ 100 | 25 to 50 | 
7 | CN([C@H]1CCC2=Cc3c(cnn3-c3ccc(F)cc3)C[C@]2(C(=O)c2cc(C(F)(F)F)ccn2)C1)S(=O)(=O)C1CCOCC1 [Example 94, N-((4aS,6S)-1-(4-fluorophenyl)-4a-(4-(trifluoromethyl)picolinoyl)-4,4a,5,6,7,8-hexahydro-1H-benzo[f]indazol-6-yl)-N-methyltetrahydro-2H-pyran-4-sulfonamide] |  | 50 to 75 | ≤ 100
8 | Cn1ccc(S(=O)(=O)N(C2CC2)[C@H]2CCC3=Cc4c(cnn4-c4ccc(F)cc4)C[C@]3(C(=O)c3cc(F)ccn3)C2)n1 [Example 224, N-cyclopropyl-N-((4aS,6S)-1-(4-fluorophenyl)-4a-(4-fluoropicolinoyl)-4,4a,5,6,7,8-hexahydro-1H-benzo[f]indazol-6-yl)-1-methyl-1H-pyrazole-3-sulfonamide] | ≤ 100 | 25 to 50 | 
9 | O=C(c1cc(F)ccn1)[C@]12Cc3cnn(-c4ccc(F)cc4)c3C=C1CC[C@H](N(C1CC(F)(F)C1)S(=O)(=O)c1ccc(Cl)nc1)C2 [Example 346, 6-chloro-N-(3,3-difluorocyclobutyl)-N-((4aS,6S)-1-(4-fluorophenyl)-4a-(4-fluoropicolinoyl)-4,4a,5,6,7,8-hexahydro-1H-benzo[f]indazol-6-yl)pyridine-3-sulfonamide] | ≤ 100 | 25 to 50 | 
10 | Cn1ccc(S(=O)(=O)N(CC2CC2)[C@H]2CCC3=Cc4c(cnn4-c4ccc(F)cc4)C[C@]3(C(=O)c3cc(F)ccn3)C2)n1 [Example 244, N-(cyclopropylmethyl)-N-((4aS,6S)-1-(4-fluorophenyl)-4a-(4-fluoropicolinoyl)-4,4a,5,6,7,8-hexahydro-1H-benzo[f]indazol-6-yl)-1-methyl-1H-pyrazole-3-sulfonamide] | ≤ 100 | 75 to 90 | 
11 | CCN([C@H]1CCC2=Cc3c(cnn3-c3ccc(F)cc3)C[C@]2(C(=O)c2cc(C(F)(F)F)ccn2)C1)S(=O)(=O)C1CCCC1 [Example 243, N-ethyl-N-((4aS,6S)-1-(4-fluorophenyl)-4a-(4-(trifluoromethyl)picolinoyl)-4,4a,5,6,7,8-hexahydro-1H-benzo[f]indazol-6-yl)cyclopentanesulfonamide] | ≤ 100 | 50 to 75 | 

Now from value to molecule:

Row | IC50 (GR; [1]) [nM] | inhibition at 5 min (CYP2C8) [%] | IC50 (GR; [2]) [nM] | SMILES
12 | ≤ 100 | 50 to 75 |  | CC(C)CN([C@H]1CCC2=Cc3c(cnn3-c3ccc(F)cc3)C[C@]2(C(=O)c2cc(C(F)(F)F)ccn2)C1)S(=O)(=O)c1ccn(C)n1 [Example 215, N-((4aS,6S)-1-(4-fluorophenyl)-4a-(4-(trifluoromethyl)picolinoyl)-4,4a,5,6,7,8-hexahydro-1H-benzo[f]indazol-6-yl)-N-isobutyl-1-methyl-1H-pyrazole-3-sulfonamide]
13 | ≤ 100 | 25 to 50 |  | Cn1cnc(S(=O)(=O)N(C2CC(F)(F)C2)[C@H]2CCC3=Cc4c(cnn4-c4ccc(F)cc4)C[C@]3(C(=O)c3ncc(C(F)(F)F)s3)C2)n1 [Example 324, N-(3,3-difluorocyclobutyl)-N-((4aS,6S)-1-(4-fluorophenyl)-4a-(5-(trifluoromethyl)thiazole-2-carbonyl)-4,4a,5,6,7,8-hexahydro-1H-benzo[f]indazol-6-yl)-1-methyl-1H-1,2,4-triazole-3-sulfonamide]
14 | ≤ 100 | 75 to 90 |  | CC(C)N([C@H]1CCC2=Cc3c(cnn3-c3ccc(F)cc3)C[C@]2(C(=O)c2cc(C(F)(F)F)ccn2)C1)S(=O)(=O)c1ccc(F)cc1 [Example 210, 4-fluoro-N-((4aS,6S)-1-(4-fluorophenyl)-4a-(4-(trifluoromethyl)picolinoyl)-4,4a,5,6,7,8-hexahydro-1H-benzo[f]indazol-6-yl)-N-isopropylbenzenesulfonamide]
15 | ≤ 100 | ≤ 25 |  | O=C(c1cc(C(F)(F)F)ccn1)[C@]12Cc3cnn(-c4ccc(F)cc4)c3C=C1CC[C@H](N(CC1CC1)S(=O)(=O)c1ccc(Cl)nc1)C2 [Example 294, 6-chloro-N-(cyclopropylmethyl)-N-((4aS,6S)-1-(4-fluorophenyl)-4a-(4-(trifluoromethyl)picolinoyl)-4,4a,5,6,7,8-hexahydro-1H-benzo[f]indazol-6-yl)pyridine-3-sulfonamide]
16 | ≤ 100 | 25 to 50 |  | Cn1cc(S(=O)(=O)N(C2CC2)[C@H]2CCC3=Cc4c(cnn4-c4ccc(F)cc4)C[C@]3(C(=O)c3ncc(C(F)(F)F)s3)C2)cn1 [Example 176, N-cyclopropyl-N-((4aS,6S)-1-(4-fluorophenyl)-4a-(5 (trifluoromethyl)thiazole-2-carbonyl)-4,4a,5,6,7,8-hexahydro-1H-benzo[f]indazol-6-yl)-1-methyl-1H-pyrazole-4-sulfonamide]
